Values of other authors, collected in PubChem BioAssay AID1259409 (Chemical Carcinogenesis Research Information System (CCRIS), 2018).

Test system: rodent chemically induced tumor inhibition, incidence and multiplicity
Test: CCRIS tumor inhibitor studies
Conditions: Promoter: NONE USED

SMILES: CC(=O)Nc1nnc(S(N)(=O)=O)s1
- tumour outcome (control, treated, inhibition, significance) (Carcinogen: N-BUTYL-N-(4-HYDROXYBUTYL)NITROSAMINE, 3817-11-6, Dose [Inhibitor]: 0.35% DIET DAILY FOR 34 WK STARTING AFTER CARCINOGEN TREATMENT (STUDY DURATION: 38 WK), Route [Inhibitor]: ORAL, Species: RAT, Strain/Sex: F344/MALE, Target Tissue: Type of Lesion: URINARY BLADDER: PAPILLOMA, Dose [Carcinogen]: 0.01% IN DRINKING WATER FOR 4 WK): 33%, 15%, 55%, not significant

SMILES: c1ccc2c(c1)Nc1ccccc1[Se]2
- tumour outcome (control, treated, inhibition, significance) (Carcinogen: BENZO[A]PYRENE, 50-32-8, Dose [Inhibitor]: 0, 3.8 UMOL/G DIET BEGINNING 1 WK PRIOR TO CARCINOGEN TREATMENT AND CONTINUING FOR 1 WK POST CARCINOGEN TREATMENT FOLLOW, Route [Inhibitor]: ORAL, Species: MOUSE, Strain/Sex: CD-1/FEMALE, Target Tissue: Type of Lesion: FORESTOMACH: PAPILLOMA, Dose [Carcinogen]: 1 MG IN 0.2 ML CORN OIL 2/WK FOR 4 WK): 85%, 95%, -12%, not significant

SMILES: CC(=O)O
- tumour outcome (control, treated, inhibition, significance) (Dose [Inhibitor]: 0, 60 UMOL (MG) INJECTED WITH CARCINOGEN INTO THIGH OF BOTH HIND LIMBS (STUDY DURATION: 79 WK), Route [Inhibitor]: INTRAMUSCULAR, Species: RAT, Strain/Sex: F344/MALE, Target Tissue: Type of Lesion: INJECTION SITE: SARCOMA, Dose [Carcinogen]: 2.5 MG PER SITE INJECTED INTO THIGH OF BOTH HIND LIMBS): 100%, 95%, 5%, not significant
